{
  "source": "patent EP4389827A1",
  "about": "“AMINOGLYCOSIDE-LINKED PHOTOSENSITIZERS” (Centre National de la Recherche Scientifique, priority 2022, dated 2024)",
  "key": {"A. baumannii DSM30011 [1]": {"system": "A. baumannii DSM30011", "test": "Minimal inhibitory concentration (EUCAST), with or without 660 nm irradiation", "format": "cell-based, Acinetobacter baumannii", "details": "Acinetobacter baumannii, DSM30011, light or radiation study, 18 h", "method": "(§1) Acinetobacter baumannii DSM30011, Bacillus subtilis 168, Pseudomonas aeruginosa PA14, P. aeruginosa PAO1, Staphylococcus aureus Mu50, S. aureus Newman and S. aureus USA300 were all grown in MHB-CA at 37°C with an agitation of 180 rpm. Candida albicans SC5314 was grown in yeast extract peptone dextrose broth at 35°C with an agitation of 180 rpm.\n(§2) Minimal inhibitory concentrations (MICs) for selected bacteria were investigated according to the EUCAST guidelines. Serial dilutions of the compounds, photosensitizers and aminoglycosides were made in MHB-CA in 384-well plates. Stationary-phase cells were diluted in MHB-CA to have a final concentration of 5.5 × 10^5 CFU/mL. Samples were incubated in the dark for 20 minutes at 37°C and either irradiated at 660 nm for 30 minutes with a LED device or kept in the dark. Irradiated samples received a total of 168 mJ/mm^2. Plates were then incubated at 37°C for 18 hours and MICs were evaluated visually. Triplicates were done and the synergy, or fractional inhibitory concentration (FIC), was calculated according to Doern et al., 2014: FIC = (MIC of AB)/(MIC of A) + (MIC of AB)/(MIC of B) [formula]"}, "B. subtilis 168": {"system": "B. subtilis 168", "test": "Minimal inhibitory concentration (EUCAST), with or without 660 nm irradiation", "format": "cell-based, Bacillus subtilis", "details": "Bacillus subtilis, 168, light or radiation study, 18 h", "method": "as §1, §2"}, "C. albicans SC5314": {"system": "C. albicans SC5314", "test": "Minimal inhibitory concentration, with or without 660 nm irradiation", "format": "cell-based", "details": "Candida albicans, SC5314, light or radiation study, 18 h", "method": "as §1, §2"}, "E. coli KanR": {"system": "E. coli KanR", "test": "Minimal inhibitory concentration (EUCAST), with or without 660 nm irradiation", "format": "cell-based", "details": "Escherichia coli, light or radiation study, 18 h", "method": "as §2"}, "E. coli pET-29": {"system": "E. coli pET-29", "test": "Minimal inhibitory concentration (EUCAST), with or without 660 nm irradiation", "format": "cell-based", "details": "Escherichia coli, PET29, light or radiation study, 18 h; aminoglycoside alone, irradiation state not given", "method": "as §2"}, "K. pneumoniae LM21": {"system": "K. pneumoniae LM21", "test": "Minimal inhibitory concentration (EUCAST), with or without 660 nm irradiation", "format": "cell-based", "details": "Klebsiella pneumoniae, LM21, light or radiation study, 18 h", "method": "as §2"}, "P. aeruginosa PA14 [2]": {"system": "P. aeruginosa PA14", "test": "Minimal inhibitory concentration (EUCAST), with or without 660 nm irradiation", "format": "cell-based, Pseudomonas aeruginosa", "details": "Pseudomonas aeruginosa, PA14, light or radiation study, 18 h", "method": "as §1, §2"}, "P. aeruginosa PAO1 [3]": {"system": "P. aeruginosa PAO1", "test": "Minimal inhibitory concentration (EUCAST), with or without 660 nm irradiation", "format": "cell-based, Pseudomonas aeruginosa", "details": "Pseudomonas aeruginosa, PAO1, light or radiation study, 18 h", "method": "as §1, §2"}, "S. aureus Mu50 [4]": {"system": "S. aureus Mu50", "test": "Minimal inhibitory concentration (EUCAST), with or without 660 nm irradiation", "format": "cell-based", "details": "Staphylococcus aureus, MU50, light or radiation study, 18 h", "method": "as §1, §2"}, "S. aureus USA300 [5]": {"system": "S. aureus USA300", "test": "Minimal inhibitory concentration (EUCAST), with or without 660 nm irradiation", "format": "cell-based", "details": "Staphylococcus aureus, USA300, light or radiation study, 18 h, aminoglycoside alone, irradiation state not given", "method": "as §1, §2"}, "S. aureus Newman [6]": {"system": "S. aureus Newman", "test": "Minimal inhibitory concentration (EUCAST), with or without 660 nm irradiation", "format": "cell-based, Staphylococcus aureus", "details": "Staphylococcus aureus, NEWMAN, light or radiation study, 18 h", "method": "as §1, §2"}, "S. aureus Mu50 [7]": {"system": "S. aureus Mu50", "test": "Antibacterial photodynamic therapy on planktonic cells (CFU count)", "format": "cell-based, Staphylococcus aureus", "details": "non-irradiated samples (Figure 3b)", "method": "as §1\n(§3) Cells were brought to stationary phase by incubating them in MHB-CA for at least 18 hours at 37°C with 180 rpm and diluted to an optical density of 1.0 just before the experiment. Cells were incubated for 20 minutes with either the compounds, photosensitizers alone, or aminoglycosides alone. Unless stated otherwise, a concentration of 10 µM was used for all experiments and samples were irradiated for 30 minutes at 660 nm with the Solis-660C lamp from ThorLabs, receiving a total of 5 J/mm^2. After illumination, cells were washed with phosphate-buffered saline (PBS) 1X, serially diluted and plated on Mueller-Hinton agar. The next day, colony forming units (CFUs) were counted."}, "S. aureus Newman [8]": {"system": "S. aureus Newman", "test": "Antibacterial photodynamic therapy on planktonic cells (CFU count)", "format": "cell-based, Staphylococcus aureus", "details": "non-irradiated samples (Figure 3d)", "method": "as §1, §3"}, "A. baumannii DSM30011 [9]": {"system": "A. baumannii DSM30011", "test": "Antibacterial photodynamic therapy on biofilm cells", "format": "cell-based, Acinetobacter baumannii", "details": "- irradiation", "source_text": "(§4) Compounds Neo-Ce6 and Tobra-Ce6 caused strong drop in survival for biofilms of A. baumannii […], P. aeruginosa species and S. aureus Mu50. […] Tobra-Ce6 had its strongest effect on A. baumannii DSM30011 with more than 4 log10 CFU/mL drop in survival and a drop of 1.7 log10 CFU/mL in P. aeruginosa PA14. Table 2: aPDT results for biofilm cells expressed in drop in the log10 CFU/mL compared to controls."}, "P. aeruginosa PA14 [10]": {"system": "P. aeruginosa PA14", "test": "Antibacterial photodynamic therapy on biofilm cells", "format": "cell-based, Pseudomonas aeruginosa", "details": "- irradiation", "source_text": "as §4"}, "P. aeruginosa PAO1 [11]": {"system": "P. aeruginosa PAO1", "test": "Antibacterial photodynamic therapy on biofilm cells", "format": "cell-based, Pseudomonas aeruginosa", "details": "- irradiation", "source_text": "as §4"}, "S. aureus Mu50 [12]": {"system": "S. aureus Mu50", "test": "Antibacterial photodynamic therapy on biofilm cells", "format": "cell-based, Staphylococcus aureus", "details": "- irradiation", "source_text": "as §4"}, "S. aureus Newman [13]": {"system": "S. aureus Newman", "test": "Antibacterial photodynamic therapy on biofilm cells", "format": "cell-based, Staphylococcus aureus", "details": "- irradiation", "source_text": "as §4"}, "S. aureus USA300 [14]": {"system": "S. aureus USA300", "test": "Antibacterial photodynamic therapy on biofilm cells", "format": "cell-based, Staphylococcus aureus", "details": "- irradiation", "source_text": "as §4"}, "[15]": {"system": "S. aureus USA300 persister cells", "test": "Antibacterial photodynamic therapy on persister cells", "format": "cell-based, Staphylococcus aureus", "details": "persister cells (6 hours, 2 mM neomycin); aPDT at 10 µM, 5 J/mm^2 (Figure 6a)", "method": "Persister plateau and AG concentration varied from one species to another. In S. aureus USA300, a stable plateau was obtained following 6 hours of incubation with 2 mM of neomycin. […] This control is crucial to make sure that a persister state has been achieved. […] As there are no significant differences between irradiated and non-irradiated samples, however, the production of singlet oxygen may not be the factor leading to cell death. In S. aureus Newman, cells were treated for 24 hours with 1 mM of neomycin. […] Although this synergy does exist, like in S. aureus USA300, there is no significant difference in survival for irradiated and non-irradiated samples, except for Ce6."}, "P. aeruginosa PAO1 [16]": {"system": "P. aeruginosa PAO1", "test": "Antibacterial photodynamic therapy on planktonic cells (CFU count)", "format": "cell-based", "details": "Pseudomonas aeruginosa, PAO1, light or radiation study, aminoglycoside alone, Figure 5d (without irradiation), read-out: drop of survival", "method": "as §1, §3"}, "[17]": {"details": "aminoglycoside alone, irradiation state not given, read-out: MIC"}},
  "note": "Like-named read-outs stand apart in the source and are kept apart here.",
  "data": [
    {"smiles": "NC[C@@H]1O[C@H](O[C@H]2[C@@H](O)[C@H](O[C@@H]3[C@@H](O)[C@H](N)C[C@H](N)[C@H]3O[C@H]3O[C@H](CN)[C@@H](O)[C@H](O)[C@H]3N)O[C@@H]2CO)[C@H](N)[C@@H](O)[C@@H]1O", "note": "[Neomycin, neomycin]", "values": [
      {"measurement": "MIC", "setting": "A. baumannii DSM30011 [1]", "result": 8, "unit": "µM"},
      {"measurement": "MIC", "setting": "B. subtilis 168", "result": 0.4, "unit": "µM"},
      {"measurement": "MIC", "setting": "C. albicans SC5314", "result": "> 512", "unit": "µM"},
      {"measurement": "MIC", "setting": "E. coli KanR", "result": "> 512", "unit": "µM"},
      {"measurement": "MIC", "setting": "E. coli pET-29", "result": "128 to 256", "unit": "µM"},
      {"measurement": "MIC", "setting": "K. pneumoniae LM21", "result": 2, "unit": "µM"},
      {"measurement": "MIC", "setting": "P. aeruginosa PA14 [2]", "result": 4, "unit": "µM"},
      {"measurement": "MIC", "setting": "P. aeruginosa PAO1 [3]", "result": 16, "unit": "µM"},
      {"measurement": "MIC", "setting": "S. aureus Mu50 [4]", "result": "> 512", "unit": "µM"},
      {"measurement": "MIC", "setting": "S. aureus USA300 [5]", "result": 4, "unit": "µM"},
      {"measurement": "MIC", "setting": "S. aureus Newman [6]", "result": 8, "unit": "µM"},
      {"measurement": "drop in CFUs (in words)", "setting": "S. aureus Mu50 [7]", "result": "does not lead to significantly less survival"},
      {"measurement": "drop in CFUs (in words)", "setting": "S. aureus Newman [8]", "result": "does not lead to significantly less survival"},
      {"measurement": "drop in the log10 CFU/mL compared to controls", "setting": "A. baumannii DSM30011 [9]", "result": 1.33, "unit": "log10 CFU/mL"},
      {"measurement": "drop in the log10 CFU/mL compared to controls", "setting": "P. aeruginosa PA14 [10]", "result": 0.01, "unit": "log10 CFU/mL"},
      {"measurement": "drop in the log10 CFU/mL compared to controls", "setting": "P. aeruginosa PAO1 [11]", "result": 0.28, "unit": "log10 CFU/mL"},
      {"measurement": "drop in the log10 CFU/mL compared to controls", "setting": "S. aureus Mu50 [12]", "result": 0.18, "unit": "log10 CFU/mL"},
      {"measurement": "drop in the log10 CFU/mL compared to controls", "setting": "S. aureus Newman [13]", "result": -0.07, "unit": "log10 CFU/mL"},
      {"measurement": "drop in the log10 CFU/mL compared to controls", "setting": "S. aureus USA300 [14]", "result": 0.16, "unit": "log10 CFU/mL"},
      {"measurement": "persister cell survival (in words)", "setting": "[15]", "result": "no significant drop in survival"}
    ]},
    {"smiles": "NC[C@H]1O[C@H](O[C@H]2[C@H](O)[C@@H](O[C@H]3O[C@H](CO)[C@@H](O)[C@H](N)[C@H]3O)[C@H](N)C[C@@H]2N)[C@H](N)C[C@@H]1O", "note": "[Tobramycin, tobramycin]", "values": [
      {"measurement": "MIC", "setting": "A. baumannii DSM30011 [1]; [17]", "result": "4 to 8", "unit": "µM"},
      {"measurement": "MIC", "setting": "P. aeruginosa PA14 [2]; [17]", "result": "1 to 2", "unit": "µM"},
      {"measurement": "MIC", "setting": "P. aeruginosa PAO1 [3]; [17]", "result": "0.5 to 1", "unit": "µM"},
      {"measurement": "MIC", "setting": "S. aureus Mu50 [4]; [17]", "result": "> 512", "unit": "µM"},
      {"measurement": "MIC", "setting": "S. aureus USA300 [5]", "result": 4, "unit": "µM"},
      {"measurement": "MIC", "setting": "S. aureus Newman [6]; [17]", "result": 4, "unit": "µM"},
      {"measurement": "log reduction at 10 µM", "setting": "P. aeruginosa PAO1 [16]", "result": "~2.3"},
      {"measurement": "drop in the log10 CFU/mL compared to controls", "setting": "A. baumannii DSM30011 [9]", "result": 0.93, "unit": "log10 CFU/mL"},
      {"measurement": "drop in the log10 CFU/mL compared to controls", "setting": "P. aeruginosa PA14 [10]", "result": 0.79, "unit": "log10 CFU/mL"},
      {"measurement": "drop in the log10 CFU/mL compared to controls", "setting": "P. aeruginosa PAO1 [11]", "result": 0.39, "unit": "log10 CFU/mL"},
      {"measurement": "drop in the log10 CFU/mL compared to controls", "setting": "S. aureus Mu50 [12]", "result": -0.02, "unit": "log10 CFU/mL"},
      {"measurement": "drop in the log10 CFU/mL compared to controls", "setting": "S. aureus Newman [13]", "result": 0.25, "unit": "log10 CFU/mL"},
      {"measurement": "drop in the log10 CFU/mL compared to controls", "setting": "S. aureus USA300 [14]", "result": 0.26, "unit": "log10 CFU/mL"}
    ]}
  ]
}
